Measured values from patent US20240246954A1, “COMPOSITIONS AND METHODS FOR INHIBITING KRAS” (TheRas, Inc., priority 2021, published 2024).

Legend:
[1] = target: T1, Avi-KRAS G12D (1-169) GppNHp/RAF1 RBD-3×FLAG (52-151) (Homo sapiens, UniProt P01116, G12D); assay: HTRF Raf1-KRAS G12D-GppNHp disruption assay; type: biochemical; conditions: 1 h incubation
T1 construct: Avi-KRAS G12D (1-169) GppNHp
In short: (§1)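 Compounds titrated from 100 μM in a 10-point series, incubated with protein mix 1 h at room temperature, then HTRF reagents a further 1 h. Time-resolved fluorescence read (excitation 320 nm, emission 615 nm); activity expressed as percentage of DMSO control.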

[2] = system: pERK in GP2d cells (KRAS G12D); assay: Cell-based pERK HTRF assay; conditions: GP2d, 1 h, 60 min incubation
Method: Biological Example 3. Cell-Based pERK HTRF Assay
pERK assay (Perkin Elmer) was used to determine the effectiveness of compounds in disrupting KRAS G12D protein/effector signaling in cells.
On Day 1, cells (GP2d) were seeded into 96-well plates at 3×10^4 cells/well in 80 μl complete growth media (DMEM, 10% FBS).
On Day 2, cells were treated with compounds at 0.25% DMSO. The source plate was created with compounds diluted in media at 5-fold the final assay concentration. The compounds were run in a 9-point concentration curve starting at 1 μM, with a half-log dilution between concentrations. 20 μL was transferred onto the cell plates (final volume in wells was 100 μL). Plates were harvested after 60 min incubation by aspirating media and adding kit-supplied 1× supplemented lysis buffer to all wells (50 μl per well). Plates were then placed on a plate shaker and incubated at 850 rpm for an additional 30 min.
Antibody mixture solution is prepared by diluting aliquoted d2 and Eu Cryptate antibodies 1:20 in kit supplied detection buffer, mix the diluted antibodies solutions (1:1 v:v). Four μL of this solution is then added to a 384-well detection plate (Perkin Elmer; 6008230).
Samples were homogenized by pipetting up and down and then transferred (16 μL of cell lysates) from the 96-well cell culture plate to two wells of the HTRF 384-well detection plate containing the antibody solution. Plates were centrifuged (524 g for 1 min) and allowed to incubate between 4 and 24 h at room temperature. Maximum signal is reached after 4 h incubation time and remains stable over a period of 24 hours. Therefore, readings can be made between 4 and 24 h of incubation. Plates were centrifuged again (524 g for 1 min), then analyzed on the EnVision plate reader using the following settings: Excitation 320 nm, Bandwidth 75 nm; Emission 615 nm, Bandwidth 85 nm; Gain 100%; Flashes 100; Lag 60 μs.

[3] = target: T2, Avi-KRAS G12D/Q25A (1-169) GppNHp/3×FLAG-PI3KCA (157-299) (Homo sapiens, UniProt P01116, G12D/Q25A); assay: HTRF PI3KCA-KRAS G12D/Q25A-GppNHp disruption assay; type: biochemical; conditions: 1 h incubation
T2 construct: Avi-KRAS G12D/Q25A (1-169) GppNHp
T2 sequence (P01116 1-169 isoform P01116-2 G12D/Q25A limits assumed): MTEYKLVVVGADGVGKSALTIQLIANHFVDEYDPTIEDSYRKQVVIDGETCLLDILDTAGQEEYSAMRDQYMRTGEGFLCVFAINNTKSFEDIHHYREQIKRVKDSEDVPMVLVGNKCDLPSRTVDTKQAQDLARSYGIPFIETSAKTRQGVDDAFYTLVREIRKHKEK
In short: as §1

T1 sequence (P01116 1-169 isoform P01116-2 G12D limits assumed): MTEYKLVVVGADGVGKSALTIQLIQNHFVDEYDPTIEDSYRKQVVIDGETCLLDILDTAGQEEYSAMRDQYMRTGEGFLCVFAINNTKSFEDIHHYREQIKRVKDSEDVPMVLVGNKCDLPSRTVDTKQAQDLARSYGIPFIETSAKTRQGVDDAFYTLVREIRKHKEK

IC50 [1]	IC50 [2]	IC50 [3]	Structure (SMILES)
100 to 1000 nM	100 to 1000 nM	100 to 1000 nM	CN(c1nc(N2CC(N3CC4(CC4)C3)C2)nc2c(F)c(-c3ccc(F)c4sc(N)c(C#N)c34)c(C(F)(F)F)cc12)[C@@H]1CCNC1 [Compound 365]
100 to 1000 nM	≤ 100 nM	100 to 1000 nM	CN(c1nc(OC[C@@]23CCCN2C[C@H](F)C3)nc2c(F)c(-c3ccc(F)c4sc(N)c(C#N)c34)c(Cl)cc12)[C@@H]1CCNC1 [Compound 379]
100 to 1000 nM	≤ 100 nM	1000 to 10000 nM	C[C@@H]1CN(c2nc(OC[C@@]34CCCN3C[C@H](F)C4)nc3c(F)c(-c4ccc(F)c5sc(N)nc45)c(C(F)(F)F)cc23)[C@@H](C)CN1 [Compound 207]
100 to 1000 nM	100 to 1000 nM	100 to 1000 nM	C[C@@H]1C[C@@H](N(C)c2nc(OC[C@@]34CCCN3C[C@H](F)C4)nc3c(F)c(-c4ccc(F)c5sc(N)nc45)c(C(F)(F)F)cc23)CN1 [Compound 283]
1000 to 10000 nM	> 1000 nM	1000 to 10000 nM	CN(c1nc(OCC23CCCN2CCC3)nc2c(F)c(-c3ccc(F)c4sc(N)nc34)c(C(F)(F)F)cc12)[C@H]1CC[C@H](N)CC1 [Compound 304]
100 to 1000 nM	100 to 1000 nM	100 to 1000 nM	CN(c1nc(OC[C@@]23CCCN2C[C@H](F)C3)nc2c(F)c(-c3ccc(F)c4sc(N)c(C#N)c34)c(F)cc12)[C@H]1CCNC1 [Compound 361, 2-amino-4-(6,8-difluoro-2-(((2R,7aS)-2-fluorotetrahydro-1H-pyrrolizin-7a(5H)-yl)methoxy)-4-(methyl((S)-pyrrolidin-3-yl)amino)quinazolin-7-yl)-7-fluorobenzo[b]thiophene-3-carbonitrile]
100 to 1000 nM	100 to 1000 nM	100 to 1000 nM	CN(c1nc(OC[C@@]23CCCN2C[C@H](F)C3)nc2c(F)c(-c3ccc(F)c4sc(N)nc34)c(C(F)(F)F)cc12)[C@@H]1CNCC1(C)C [Compound 293]
1000 to 10000 nM	> 1000 nM	1000 to 10000 nM	Nc1nc2c(-c3c(C(F)(F)F)cc4c(N5CC[C@@H]6CCNC[C@@H]65)nc(OCC56CCCN5CCC6)nc4c3F)ccc(F)c2s1 [Compound 349]
1000 to 10000 nM	100 to 1000 nM	1000 to 10000 nM	CN(c1nc(OC[C@@]23CCCN2C[C@H](F)C3)nc2cc(-c3ccc(F)c4sc(N)c(C#N)c34)c(C(F)(F)F)cc12)[C@H]1CNC[C@@H]1F [Compound 356]
≤ 100 nM	≤ 100 nM	100 to 1000 nM	C[C@@H]1CN(c2nc(OC[C@@]34CCCN3C[C@H](F)C4)nc3c(F)c(-c4ccc(F)c5sc(N)c(C#N)c45)c(C(F)(F)F)cc23)[C@@H](C)CN1 [Compound 378]
100 to 1000 nM	> 1000 nM	1000 to 10000 nM	CN1CCC[C@H]1COc1nc(NC2CNC2)c2cc(C(F)(F)F)c(-c3ccc(F)c4sc(N)nc34)c(F)c2n1 [Compound 129]
1000 to 10000 nM	100 to 1000 nM	1000 to 10000 nM	Nc1nc2c(-c3c(C(F)(F)F)cc4c(N5CC[C@H]6CNC[C@H]65)nc(OC[C@@]56CCCN5C[C@H](F)C6)nc4c3F)ccc(F)c2s1 [Compound 352]
≤ 100 nM	≤ 100 nM	100 to 1000 nM	CN(c1nc(OC[C@@]23CCCN2C[C@H](F)C3)nc2c(F)c(-c3ccc(F)c4sc(N)c(C#N)c34)c(C(F)(F)F)cc12)[C@]1(C)CCNC1 [Compound 360]
100 to 1000 nM	100 to 1000 nM	1000 to 10000 nM	CN(c1nc(OCC2(CN3CC[C@@H](F)C3)CC2)nc2c(F)c(-c3ccc(F)c4sc(N)nc34)c(C(F)(F)F)cc12)[C@@H]1CCNC1 [Compound 297]
100 to 1000 nM	≤ 100 nM	100 to 1000 nM	CN(c1nc(OC[C@@]23CCCN2C[C@H](F)C3)nc2c(F)c(-c3ccc(F)c4sc(N)c(C#N)c34)c(C(F)(F)F)cc12)[C@H]1CNC[C@H]1F [Compound 353]
1000 to 10000 nM	> 1000 nM	1000 to 10000 nM	Nc1nc2c(-c3c(C(F)(F)F)cc4c(N[C@H]5CCC[C@H](N)C5)nc(OCC56CCCN5CCC6)nc4c3F)ccc(F)c2s1 [Compound 328]
100 to 1000 nM	> 1000 nM	1000 to 10000 nM	CN(c1nc(OCC23CCCN2CCC3)nc2c(F)c(-c3ccc(F)c4sc(N)nc34)c(C(F)(F)F)cc12)[C@@H]1CCN(C(=O)CN)C1 (atropisomer, axis not shown) [Compound 276]

The remaining lines, values behind:

Structure (SMILES)	IC50 [1]	IC50 [2]	IC50 [3]
Nc1nc2c(-c3c(C(F)(F)F)cc4c(NC5CC6CC[C@H](C5)N6)nc(OCC56CCCN5CCC6)nc4c3F)ccc(F)c2s1 (stereo partly drawn) [Compound 264]	100 to 1000 nM	> 1000 nM	100 to 1000 nM
N#Cc1csc2c(F)ccc(-c3cc4nc(OC[C@@]56CCCN5C[C@H](F)C6)nc(N5CC6CCC(C5)N6)c4cc3C(F)(F)F)c12 [Compound 318]	1000 to 10000 nM	100 to 1000 nM	10000 to 30000 nM
N#Cc1c(O)cccc1-c1c(C(F)(F)F)cc2c(N3CC4CCC(C3)N4)nc(OCC34CCCN3CCC4)nc2c1F [Compound 341]	10000 to 30000 nM	> 1000 nM	10000 to 30000 nM
CN1C[C@H](F)C[C@H]1COc1nc(N2CC3CCC(C2)N3)c2cc(C(F)(F)F)c(-c3ccc(F)c4sc(N)nc34)c(F)c2n1 [Compound 275]	1000 to 10000 nM	≤ 100 nM	1000 to 10000 nM
CO[C@H]1CN2CCC[C@@]2(COc2nc(N3CC4CCC(C3)N4)c3cc(C(F)(F)F)c(-c4ccc(F)c5sc(N)nc45)c(F)c3n2)C1 [Compound 261]	100 to 1000 nM	≤ 100 nM	100 to 1000 nM
N#Cc1c(N)sc2c(F)ccc(-c3c(C(F)(F)F)cc4c(N5CC6CCC(C5)N6)nc(OC[C@@]56CCCN5C[C@H](F)C6)nc4c3F)c12 (single isomer, unassigned) [Compound 366]	≤ 100 nM	≤ 100 nM	≤ 100 nM
Nc1c(F)c(F)c(F)c(-c2c(C(F)(F)F)cc3c(N4CC5CCC(C4)N5)nc(OCC45CCCN4CCC5)nc3c2F)c1Cl [Compound 346]	10000 to 30000 nM	> 1000 nM	10000 to 30000 nM
CC(C)N1C2CCC1CN(c1nc(OC[C@@]34CCCN3C[C@H](F)C4)nc3c(F)c(-c4ccc(F)c5sc(N)nc45)c(C(F)(F)F)cc13)C2 [Compound 316]	1000 to 10000 nM	100 to 1000 nM	1000 to 10000 nM
N#Cc1c(-c2ccc(F)c3sc(N)c(C#N)c23)c(Cl)cc2c(N3CC4CCC(C3)N4)nc(OC[C@@]34CCCN3C[C@H](F)C4)nc12 [Compound 371]	100 to 1000 nM	≤ 100 nM	100 to 1000 nM
Fc1c(-c2ccc(F)c3sc(C(F)F)nc23)c(C(F)(F)F)cc2c(N3CC4CCC(C3)N4)nc(OC[C@@]34CCCN3C[C@H](F)C4)nc12 [Compound 339]	10000 to 30000 nM	> 1000 nM	10000 to 30000 nM
Nc1nc2c(-c3c(C(F)(F)F)cc4c(N5CC6CCCC(C5)N6)nc(OC[C@@]56CCCN5C[C@H](F)C6)nc4c3F)ccc(F)c2s1 [Compound 299]	100 to 1000 nM	≤ 100 nM	100 to 1000 nM
Nc1nc2c(-c3c(C(F)(F)F)cc4c(N5CC6COCC(C5)N6)nc(OC[C@@]56CCCN5C[C@H](F)C6)nc4c3F)ccc(F)c2s1 [Compound 300]	100 to 1000 nM	100 to 1000 nM	100 to 1000 nM
N#Cc1c(N)cccc1-c1c(C(F)(F)F)cc2c(N3CC4CCC(C3)N4)nc(OCC34CCCN3CCC4)nc2c1F [Compound 342]	10000 to 30000 nM	> 1000 nM	10000 to 30000 nM
